We go through 21 molecules from patent publication US20210188843A1, “QUINOLINE COMPOUNDS AND THEIR PREPARATION AND USE AS ANTIMALARIAL AGENTS” (The United States of America,as represented by the …, priority 2018, published 2021).

Values after ≈ are worked out from the molar mass of the structure shown.

Series [1] is described as follows: Microsomal stability (rat). Format: in vitro ADME. The settings on record: rat microsomes, Table 1, read-out: Microsomal Stability (rat) T1/2.
The next series is described as follows: PAMPA permeability. The settings on record: Table 1. Format: in vitro ADME.
Another series in a line: Solubility pH 7.4. Format: physicochemical. The settings on record: aqueous buffer, Table 1.
In series [2] the test system is Asexual parasites of P. falciparum strain 3D7. Kind of series: In vitro drug activity on asexual parasites (SYBR Green assay). Format: cell-based. Particulars: Plasmodium falciparum; Table 1; P. falciparum 3D7 asexual stage, 72 h; read-out: Asexual EC50. The gist of the method:
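Growth was measured by SYBR Green I fluorescence (excitation 490 nm, emission 520 nm) after freeze-thaw lysis and 30 min staining at room temperature. Parasites (0.5% parasitemia, 2% hematocrit) had been incubated 72 h with compound, DMSO below 0.5%. Conditions were run in duplicate with no-drug and RBC-alone controls.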

`Cc1ccc(C#N)cc1-n1/c(=N/C(=O)OC(C)(C)C)n(C)c2cnc3ccc(-c4ccc(Cl)cc4)cc3c21` [Compound 88, tert-butyl (E)-(8-(4-chlorophenyl)-1-(5-cyano-2-methylphenyl)-3-methyl-1,3-dihydro-2H-imidazo[4,5-c]quinolin-2-ylidene)carbamate]: the half-life in series [1] is > 30 min. In addition, in the series “PAMPA permeability”, the apparent permeability coefficient (Papp) – broadly, a coefficient for how fast a substance crosses the barrier – stood at 128 ×10⁻⁶ cm/s. Besides, the solubility (commonly how much of the substance goes into solution per volume) in the series “Solubility pH 7.4” is < 1 µg/mL. Besides, the EC50 (as a rule, the concentration at which the effect is half-maximal) in series [2] was found to be 1620 nM.

In the case of `Cc1ccc(C#N)cc1-n1c(=N)n(C)c2cnc3ccc(-c4ccccn4)cc3c21` [Compound 91, 3-(2-imino-3-methyl-8-(pyridin-2-yl)-2,3-dihydro-1H-imidazo[4,5-c]quinolin-1-yl)-4-methylbenzonitrile], in series [1], the half-life was > 30 min. This molecule also came in with an apparent permeability (Papp) in the series “PAMPA permeability” of 1370 ×10⁻⁶ cm/s. Further, the solubility in the series “Solubility pH 7.4” is > 39 µg/mL. The concentration for a half-maximal effect (EC50) in series [2] came out at 423 nM.

In the case of `Cc1ccc(C#N)cc1-n1/c(=N/S(N)(=O)=O)n(C)c2cnc3ccc(-c4ccc(Cl)cc4)cc3c21` [Compound 100, (8-(4-chlorophenyl)-1-(5-cyano-2-methylphenyl)-3-methyl-1,3-dihydro-2H-imidazo[4,5-c]quinolin-2-ylidene)sulfonamide], in series [1], the half-life was > 30 min. In “PAMPA permeability”, this molecule displayed a Papp of 236 ×10⁻⁶ cm/s. Further, the solubility in “Solubility pH 7.4” was < 1 µg/mL. Moreover, in series [2], the concentration giving a half-maximal response (EC50) was found to be 12.9 nM.

Regarding `Cc1ccc(C#N)cc1-n1c(=N)n(C)c2cnc3ccc(-c4cnc5ccccc5c4)cc3c21` [Compound 105, 3-(2-imino-3-methyl-8-(quinolin-3-yl)-2,3-dihydro-1H-imidazo[4,5-c]quinolin-1-yl)-4-methylbenzonitrile], the half-life in series [1] was > 30 min. In “PAMPA permeability”, this molecule registered a Papp of 1150 ×10⁻⁶ cm/s. Moreover, the solubility in “Solubility pH 7.4” was > 44 µg/mL. Further, the half-maximal effective concentration (EC50) in series [2] came out at 714 nM.

As to `Cc1ccc(C#N)cc1-n1c(=N)n(C)c2cnc3ccc(-c4ccc(OCCCN(C)C)nc4)cc3c21` [Compound 106, 3-(8-(6-(3-(dimethylamino)propoxy)pyridin-3-yl)-2-imino-3-methyl-2,3-dihydro-1H-imidazo[4,5-c]quinolin-1-yl)-4-methylbenzonitrile], the half-life in series [1] is > 30 min. The apparent permeability (Papp) in the series “PAMPA permeability” amounted to 1.2 ×10⁻⁶ cm/s. Besides, the solubility in “Solubility pH 7.4” was > 49 µg/mL. In series [2], the EC50 came out at 140 nM.

On to `Cc1ccc(C#N)cc1-n1c(=N)n(C)c2cnc3ccc(-c4ccc5[nH]ncc5c4)cc3c21` [Compound 107, 3-(2-imino-8-(1H-indazol-5-yl)-3-methyl-2,3-dihydro-1H-imidazo[4,5-c]quinolin-1-yl)-4-methylbenzonitrile], for which, in series [1], the half-life was 22.9 min. The molecule further displayed a Papp in “PAMPA permeability” of 22.6 ×10⁻⁶ cm/s. The solubility in “Solubility pH 7.4” is > 42 µg/mL. For the same molecule, in series [2], the EC50 stood at 12.9 nM.

With `Cc1cc(N2CCN(C)CC2)c(C#N)cc1-n1c(=N)n(C)c2cnc3ccc(-c4ccc(Cl)cc4)cc3c21` [Compound 108, 5-(8-(4-chlorophenyl)-2-imino-3-methyl-2,3-dihydro-1H-imidazo[4,5-c]quinolin-1-yl)-4-methyl-2-(4-methylpiperazin-1-yl)benzonitrile], the half-life in series [1] was > 30 min. The Papp in “PAMPA permeability” came out at 255 ×10⁻⁶ cm/s. The molecule also yielded a solubility in “Solubility pH 7.4” of 37.6 µg/mL (≈ 72 µM). Besides, the EC50 in series [2] was 464 nM.

As to `CC(=O)N1CCN(c2cc(C)c(-n3c(=N)n(C)c4cnc5ccc(-c6ccc(Cl)cc6)cc5c43)cc2C#N)CC1` [Compound 109, 2-(4-acetylpiperazin-1-yl)-5-(8-(4-chlorophenyl)-2-imino-3-methyl-2,3-dihydro-1H-imidazo[4,5-c]quinolin-1-yl)-4-methylbenzonitrile], the half-life in series [1] was > 30 min. Also, the apparent permeability coefficient (Papp) in “PAMPA permeability” was 838 ×10⁻⁶ cm/s. For the same molecule, the solubility in the series “Solubility pH 7.4” was < 1 µg/mL. Moreover, the EC50 in series [2] amounted to 4.33 nM.

Regarding `Cc1cc(N2CCC2)c(C#N)cc1-n1c(=N)n(C)c2cnc3ccc(-c4ccc(Cl)cc4)cc3c21` [Compound 110, 2-(azetidin-1-yl)-5-(8-(4-chlorophenyl)-2-imino-3-methyl-2,3-dihydro-1H-imidazo[4,5-c]quinolin-1-yl)-4-methylbenzonitrile], in series [1], the half-life was > 30 min. The molecule also gave a Papp in “PAMPA permeability” of 176 ×10⁻⁶ cm/s. The solubility in the series “Solubility pH 7.4” is < 1 µg/mL. Also, the EC50 in series [2] worked out at 373 nM.

Regarding `Cc1cc(N2CCCCC2)c(C#N)cc1-n1c(=N)n(C)c2cnc3ccc(-c4ccc(Cl)cc4)cc3c21` [Compound 112, 5-(8-(4-chlorophenyl)-2-imino-3-methyl-2,3-dihydro-1H-imidazo[4,5-c]quinolin-1-yl)-4-methyl-2-(piperidin-1-yl)benzonitrile], the half-life in series [1] is > 30 min. The Papp in the series “PAMPA permeability” was found to be 1280 ×10⁻⁶ cm/s. The solubility in the series “Solubility pH 7.4” was < 1 µg/mL. Also, in series [2], the concentration for a half-maximal effect (EC50) amounted to 1830 nM.

As to `Cc1ccc(C#N)cc1-n1/c(=N/S(N)(=O)=O)n(C)c2cnc3ccc(-c4cccc(F)c4)cc3c21` [Compound 116], the half-life in series [1] came out at 17.9 min. Also, the Papp in “PAMPA permeability” came out at 1070 ×10⁻⁶ cm/s. In addition, in the series “Solubility pH 7.4”, the solubility was < 1 µg/mL. The EC50 in series [2] was 27.8 nM.

Take `Cc1cc(N2CC3(COC3)C2)c(C#N)cc1-n1c(=N)n(C)c2cnc3ccc(-c4ccc(Cl)cc4)cc3c21` [Compound 121, 5-(8-(4-chlorophenyl)-2-imino-3-methyl-2,3-dihydro-1H-imidazo[4,5-c]quinolin-1-yl)-4-methyl-2-(2-oxa-6-azaspiro[3.3]heptan-6-yl)benzonitrile]: the half-life in series [1] was > 30 min. Further, the Papp in “PAMPA permeability” was determined as 6.2 ×10⁻⁶ cm/s. Besides, the solubility in the series “Solubility pH 7.4” is 1.3 µg/mL (≈ 2.5 µM). Moreover, the EC50 in series [2] stood at 148 nM.

For `COC(=O)/N=c1\n(C)c2cnc3ccc(-c4ccc(C)nc4)cc3c2n1-c1cc(C#N)ccc1C` [Compound 125, methyl (E)-(1-(5-cyano-2-methylphenyl)-3-methyl-8-(6-methylpyridin-3-yl)-1,3-dihydro-2H-imidazo[4,5-c]quinolin-2-ylidene)carbamate], the half-life in series [1] was > 30 min. Moreover, the Papp in the series “PAMPA permeability” was 243 ×10⁻⁶ cm/s. The solubility in “Solubility pH 7.4” was found to be 12.5 µg/mL (≈ 27 µM). In addition, in series [2], the concentration giving a half-maximal response (EC50) turned out to be 1.2 nM.

For `CC(=O)N1CCN([C@H]2C[C@H](n3c(=N)n(C)c4cnc5ccc(-c6ccc(Cl)cc6)cc5c43)C2)CC1` [Compound 129, 1-(4-((1r,3r)-3-(8-(4-chlorophenyl)-2-imino-3-methyl-2,3-dihydro-1H-imidazo[4,5-c]quinolin-1-yl)cyclobutyl)piperazin-1-yl)ethan-1-one], in series [1], the half-life is > 30 min. This molecule had an apparent permeability (Papp) in “PAMPA permeability” of 4.6 ×10⁻⁶ cm/s. Further, the solubility in “Solubility pH 7.4” was > 48 µg/mL. Also, in series [2], the EC50 was determined as 12700 nM.

With `CC(=O)N1CCN(c2nc(C)c(-n3c(=N)n(C)c4cnc5ccc(-c6ccc(Cl)cc6)cc5c43)cc2C#N)CC1` [Compound 130, 2-(4-acetylpiperazin-1-yl)-5-(8-(4-chlorophenyl)-2-imino-3-methyl-2,3-dihydro-1H-imidazo[4,5-c]quinolin-1-yl)-6-methylnicotinonitrile], the half-life in series [1] is 20.2 min. This molecule also came in with a Papp in the series “PAMPA permeability” of 112 ×10⁻⁶ cm/s. Besides, the solubility in “Solubility pH 7.4” is > 54 µg/mL. Besides, in series [2], the EC50 was determined as 22.2 nM.

With `CC(=O)NC1CCN(c2cc(C)c(-n3c(=N)n(C)c4cnc5ccc(-c6ccc(Cl)cc6)cc5c43)cc2C#N)CC1` [Compound 132, N-(1-(4-(8-(4-chlorophenyl)-2-imino-3-methyl-2,3-dihydro-1H-imidazo[4,5-c]quinolin-1-yl)-2-cyano-5-methylphenyl)piperidin-4-yl)acetamide], the half-life in series [1] was > 30 min. Also, in “PAMPA permeability”, the apparent permeability coefficient (Papp) is 7 ×10⁻⁶ cm/s. In “Solubility pH 7.4”, the concentration in solution (solubility) came to 4.6 µg/mL (≈ 8.15 µM). For the same molecule, in series [2], the half-maximal effective concentration (EC50) worked out at 54.9 nM.

Take `Cc1cc(C#N)c(C#N)cc1-n1c(=N)n(C)c2cnc3ccc(-c4ccc(Cl)cc4)cc3c21` [Compound 135, 4-(8-(4-chlorophenyl)-2-imino-3-methyl-2,3-dihydro-1H-imidazo[4,5-c]quinolin-1-yl)-5-methylphthalonitrile]: the half-life in series [1] is > 30 min. This molecule gave an apparent permeability coefficient (Papp) in the series “PAMPA permeability” of 397 ×10⁻⁶ cm/s. Besides, the solubility in “Solubility pH 7.4” is < 1 µg/mL. Moreover, the EC50 in series [2] amounted to 27 nM.

Consider `Cc1ccc(C#N)cc1-n1c(=N)n(C)c2cnc3ccc(-c4cnn(C)c4)cc3c21` [Compound 136, 3-(2-imino-3-methyl-8-(1-methyl-1H-pyrazol-4-yl)-2,3-dihydro-1H-imidazo[4,5-c]quinolin-1-yl)-4-methylbenzonitrile], for which the half-life in series [1] is > 30 min. The Papp in the series “PAMPA permeability” was 89.5 ×10⁻⁶ cm/s. The same molecule gave a solubility in “Solubility pH 7.4” of 40.4 µg/mL (≈ 103 µM). The EC50 in series [2] was 56.1 nM.

Take `Cc1ccc(C#N)cc1-n1c(=N)n(C)c2cnc3ccc(-c4ccc(Cl)cc4)cc3c21` [Compound 137, 3-(8-(4-chlorophenyl)-2-imino-3-methyl-2,3-dihydro-1H-imidazo[4,5-c]quinolin-1-yl)-4-methylbenzonitrile]: in series [1], the half-life is > 30 min. Further, the Papp in the series “PAMPA permeability” was 1260 ×10⁻⁶ cm/s. In the series “Solubility pH 7.4”, the solubility was 3.6 µg/mL (≈ 8.49 µM). Besides, the EC50 in series [2] is 43.1 nM.

Regarding `Cc1nc(N2CCN(C)CC2)c(C#N)cc1-n1c(=N)n(C)c2cnc3ccc(-c4cccc(F)c4)cc3c21` [Compound 143, 5-(8-(3-fluorophenyl)-2-imino-3-methyl-2,3-dihydro-1H-imidazo[4,5-c]quinolin-1-yl)-6-methyl-2-(4-methylpiperazin-1-yl)nicotinonitrile], the half-life in series [1] was > 30 min. The Papp in the series “PAMPA permeability” was determined as 776 ×10⁻⁶ cm/s. For the same molecule, the solubility in the series “Solubility pH 7.4” was > 50 µg/mL. The EC50 in series [2] was 374 nM.

`Cc1ccc(-c2ccc3ncc4c(c3c2)n(-c2cc(C#N)c(N3CCOCC3)cc2C)c(=N)n4C)cc1` [Compound 145, 5-(2-imino-3-methyl-8-(p-tolyl)-2,3-dihydro-1H-imidazo[4,5-c]quinolin-1-yl)-4-methyl-2-morpholinobenzonitrile]: the half-life in series [1] is > 30 min. Moreover, in “PAMPA permeability”, the Papp was 1140 ×10⁻⁶ cm/s. In the series “Solubility pH 7.4”, the concentration in solution (solubility) came to 16.7 µg/mL (≈ 34.2 µM). For the same molecule, the concentration giving a half-maximal response (EC50) in series [2] amounted to 142 nM.
